According to patent publication US20170049100A1 (priority 2014, published 2017):
Values after ≈ are worked out from the molar mass of the structure shown.

Test system: resistant strain of Pythium sp.
Assay: In vitro sensitivity of a resistant strain of Pythium sp. (mycelium growth, optical density at 590 nm)
Type: cell-based
Details: 168 h, 500 spores/mL, 7 days at 20° C., read-out: EC50 (effective concentration of the active ingredient which reduces the growth of the phytopathogen by 50%)

CCCCCCCCO [octanol, octan-1-ol]
EC50: 1.3 ng/mL (≈ 9.98 nM)
